Key:
trehalose phosphorylase [1] = target: T1, trehalose phosphorylase (Thermoanaerobacter brockii, UniProt Q8L164); test: Transglucosylation to polyalcohols by trehalose phosphorylase (GC analysis); format: biochemical, Thermoanaerobium brockii; design: key to Transfer of a glucosyl residue (Transglucosylation): +++: the area of 60% or higher; ++: 30% or higher but less than 60%; +: 0% or higher but less than 30%; −: Transglucosylation was not detected; conditions: 1% (w/v) polyalcohol as acceptor, 1.4% (w/v) β-G1P, pH 6.0, 50° C., 24 hours; for Transfer of a glucosyl residue (Transglucosylation): one unit/ml enzyme, peak area of transferred product to total peak area
T1 construct: cells collected from the culture were disrupted by ultrasonication and then, the supernatant was collected; made in house; host or cells: Thermoanaerobium brockii ATCC 35047 (natural producer, not recombinant); purified by DEAE, butyl and gel filtration chromatography
T1 sequence (Q8L164 1-774): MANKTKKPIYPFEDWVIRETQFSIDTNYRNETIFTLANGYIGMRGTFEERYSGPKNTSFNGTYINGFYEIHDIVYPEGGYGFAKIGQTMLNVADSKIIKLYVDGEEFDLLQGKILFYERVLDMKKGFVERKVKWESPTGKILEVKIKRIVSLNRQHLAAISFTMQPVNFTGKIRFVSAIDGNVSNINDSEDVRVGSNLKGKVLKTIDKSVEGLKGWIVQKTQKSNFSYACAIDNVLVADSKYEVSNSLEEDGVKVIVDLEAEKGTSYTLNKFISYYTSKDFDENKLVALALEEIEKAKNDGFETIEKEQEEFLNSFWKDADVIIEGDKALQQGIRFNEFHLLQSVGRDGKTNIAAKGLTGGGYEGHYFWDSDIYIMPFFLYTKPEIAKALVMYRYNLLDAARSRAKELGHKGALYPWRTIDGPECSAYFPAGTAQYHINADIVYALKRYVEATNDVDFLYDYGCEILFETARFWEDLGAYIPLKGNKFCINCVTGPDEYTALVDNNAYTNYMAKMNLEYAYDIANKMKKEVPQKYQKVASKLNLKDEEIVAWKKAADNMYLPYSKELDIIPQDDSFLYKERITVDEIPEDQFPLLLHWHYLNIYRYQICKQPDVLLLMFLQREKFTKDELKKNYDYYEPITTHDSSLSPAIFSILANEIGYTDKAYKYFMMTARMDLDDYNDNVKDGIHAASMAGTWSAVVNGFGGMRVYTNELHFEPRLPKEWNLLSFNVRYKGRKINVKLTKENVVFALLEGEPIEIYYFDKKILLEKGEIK
Experimental: (§1) An aqueous solution containing 1% (w/v) of either of polyalcohols (all reagent grade), shown in Table 1 below, 1.4% (w/v) of a reagent grade β-G1P, one unit/ml of trehalose phosphorylase obtained in Example 1-1, and 50 mM acetate buffer (pH 6.0) was prepared and followed by the enzyme reaction while keeping the solution at 50° C. for 24 hours. After the reaction, a portion of each reaction mixture was withdrawn, dried, and dissolved in pyridine for gas chromatography analysis (hereinafter, simply abbreviated as “GC”). In GC analysis, a stainless steel column (internal diameter 3 mm×length 2 m) packed with 2% Silicon OV-17/Chromosorb W”, commercialized by GL Science, Tokyo, Japan) was used. Nitrogen gas was used as carrier gas and the flow rate was set to 40 ml/min. A column oven was controlled to rise a column temperature at 160° C. to 320° C. in a rate of 7.5° C./min after the injection of samples. A hydrogen-flame ion detector was used for the detection. An aqueous solution with the same composition except for trehalose phosphorylase was prepared, kept with the same condition described above, and analyzed by GC by the same condition to confirm the chromatogram of non-reacted polyalcohol and β-G1P. Transfer of a glucosyl residue to each polyalcohol was judged by detecting new peak(s) in the chromatogram of the reaction mixture. The amount of glucosyl-transferred polyalcohol formed by the reaction was estimated based on a peak area of the glucosyl-transferred polyalcohol to the total peak area including that of non-reacted (residual) polyalcohol, and classified into three groups of the area of 60% or higher, “+++”; 30% or higher but less than 60%, “++”; and 0% or higher but less than 30%, “+”.

trehalose phosphorylase [2] = target: T1, trehalose phosphorylase; test: Transglucosylation to glucuronic acid and C-6DGs by trehalose phosphorylase (GC analysis); format: biochemical, Thermoanaerobium brockii; conditions: 1% (w/v) glucuronic acid or C-6DG as acceptor, 1.4% (w/v) β-G1P, one unit/ml enzyme, pH 6.0, 50° C., 24 hours; peak area of transferred product to total peak area
Experimental: as §1
An aqueous solution containing 1% (w/v) of any one of glucuronic acid or C-6DGs (all reagent grade), shown in Table 2 below, 1.4% (w/v) of a reagent grade β-G1P, one unit/ml of trehalose phosphorylase obtained in Example 1-1, and 50 mM acetate buffer (pH 6.0) was prepared and followed by the enzyme reaction while keeping the solution at 50° C. for 24 hours. After the reaction, each reaction mixture was analyzed by GC described in Example 1-2. In the same manner as described in Example 1-2, the amount of a glucosyl-transferred product formed by the reaction was estimated based on a peak area of the glucosyl-transferred product to the total peak area including that of non-reacted (remaining) glucuronic acid or C-6DGs, and classified into three groups of the area of 60% or higher, “+++”; 30% or higher but less than 60%, “++”; and 0% or higher but less than 30%, “+”.

Row | Molecule | Transfer of a glucosyl residue (Transglucosylation) (trehalose phosphorylase [1]) | Transglucosylation to the polyalcohol, stated in words (trehalose phosphorylase [1]) | Transfer of a glucosyl residue (Transglucosylation) (trehalose phosphorylase [2])
1 | OC[C@@H](O)[C@@H](O)CO [Erythritol] | + (0% or higher but less than 30%) | transferred a glucosyl residue | 
2 | O=C[C@H](O)[C@@H](O)[C@H](O)[C@H](O)C(=O)O [Glucuronic acid] |  |  | + (0% or higher but less than 30%)
3 | OCC(O)CO [Glycerol] | + (0% or higher but less than 30%) | transferred a glucosyl residue | 
4 | OC[C@H]1O[C@H](OC[C@H]2OC(O)[C@H](O)[C@@H](O)[C@@H]2O)[C@H](O)[C@@H](O)[C@@H]1O (stereo partly shown) [Isomaltose] |  |  | +++ (the area of 60% or higher)
5 | OC[C@H]1O[C@H](OC[C@H]2O[C@H](OC[C@H]3OC(O)[C@H](O)[C@@H](O)[C@@H]3O)[C@H](O)[C@@H](O)[C@@H]2O)[C@H](O)[C@@H](O)[C@@H]1O (stereo partly shown) [Isomaltotriose] |  |  | +++ (the area of 60% or higher)
6 | OC[C@H]1O[C@H](O[C@H]2[C@H](O)[C@@H](O)[C@@H](OC[C@H]3OC(O)[C@H](O)[C@@H](O)[C@@H]3O)O[C@@H]2CO)[C@H](O)[C@@H](O)[C@@H]1O (stereo partly shown) [Isopanose] |  |  | +++ (the area of 60% or higher)
7 | OC[C@H]1O[C@H](OCC2O[C@@H](O)[C@H](O)[C@@H](O)[C@@H]2O)[C@H](O)[C@@H](O)[C@H]1O (stereo partly shown) [Melibiose] |  |  | +++ (the area of 60% or higher)
8 | OC[C@@H](O)[C@@H](O)[C@@H](O)CO [Ribitol] | + (0% or higher but less than 30%) | transferred a glucosyl residue | 
9 | OC[C@@H](O)[C@@H](O)[C@H](O)[C@@H](O)CO [Sorbitol] | −* | no transglucosylation | 
10 | O[C@H]1[C@H](O)[C@@H](O)[C@H](O)[C@@H](O)[C@H]1O [myo-Inositol] | ++ (30% or higher but less than 60%) | transferred a glucosyl residue | 
11 | Gentiobiose |  |  | +++ (the area of 60% or higher)

From patent US20070154996A1, “Method for transferring a glucosyl residue” (priority 2004, published 2007)
